Experimental findings from patent US11027022B2, “Conjugates and conjugating reagents” (priority 2016, dated 2021) are described below.

The test system of the test is Karpas-299 cells (T-anaplastic large cell lymphoma, ALCL). Put plainly: Karpas-299 mouse xenograft study. Format: in vivo, CB17-SCID mice. The conditions noted are these: single i.v. injection, 1 mg/kg, groups of eight mice. The method, then: Healthy female CB17-SCID mice (CBySmn.CB17-Prkdcscida, Charles River Laboratories) with an average body weight of 17.5 g were used for cell inoculation (Day 0). 24 to 72 h prior to tumour cell injection, the mice were […] (1.44 Gy, ^60Co). The animals were maintained in SPF health status according to the FELASA guidelines in housing rooms under controlled environmental conditions.
Tumours were induced by subcutaneous injection of 10^7 Karpas-299 cells (T-anaplastic large cell lymphoma, ALCL) in 200 μL of RPMI 1640 into the right flank. Tumours were measured twice a week with callipers, and the volume was estimated using the formula: […]
Fourteen days after tumour implantation (Day 14), the animals were randomised into groups of eight mice using Vivo Manager® software (233 mm^3 mean tumour volume) and treatment was initiated. The animals from the vehicle group received a single intravenous (i.v.) injection of PBS. The treated groups were dosed with a single i.v. injection of ADC at either 0.5 mg/kg or 1 mg/kg.
Treatment tolerability was assessed by bi-weekly body weight measurement and daily observation for clinical signs of treatment-related side effects. Mice were euthanized when a humane endpoint was reached (e.g. 1,600 mm^3 tumour volume) or after a maximum of 6 weeks post-dosing.

With “Adcetris®: commercially-available Adcetris® conjugate, comparative to the brentuximab-drug conjugates [reference compound]”, the “complete responses (total reduction of tumour volume to zero)” value came to 2 animals and the “mean tumour volume (result in words)” value is on record as “increase in mean tumour volume”.
